# Patent publication US12662479B2 (Foghorn Therapeutics Inc., priority 2020, dated 2026)
# Columns and labels:
# HiBit-BRM fusion protein = target: T1, HiBit-BRM fusion protein (Homo sapiens, UniProt P51531); assay: HiBiT-BRM cell-based degradation assay (Nano-Glo HiBiT Lytic Detection, 24 h); conditions: HeLa cells expressing HiBiT-BRM; for DC50: read-out: BRM HiBit Degradation IC50; for BRM HiBit Degradation Maximum measured: top dose 30 μM
# T1 construct: expressed in transfected cells
# Experimental: (§1) Procedure: A stable HeLa cell line expressing HiBiT-BRM was generated. On day 0, 5000 cells were seeded in 40 μL of media into each well of 384-well cell culture plates. On day 1, cells were treated with 120 nL DMSO or 120 nL of 3-fold serially DMSO-diluted compounds (10 points in duplicate with 30 μM as final top dose). Subsequently plates were incubated for 24 h in a standard tissue culture incubator and equilibrated at room temperature for 15 minutes. Nano-Glo HiBiT Lytic Detection System (Promega N3050) reagent was freshly prepared and 20 ul was added to each well. Upon addition of this LgBit-containing reagent, the HiBiT and LgBiT proteins associate to form the luminescent NanoBiT luciferase. The plates were shaken for 10 minutes at room temperature and the bioluminescence read using an EnVision plate reader (PerkinElmer).
# (§2) The degradation % was calculated using the following formula: % degradation=100%−100%×(LumSample−LumLC)/(LumHC−LumLC). DMSO treated cells are employed as High Control (HC) and 2 μM of a known BRM/BRG1 degrader standard treated cells are employed as Low Control (LC).
# [1] = target: T2, HiBit-BRG1 fusion protein (Homo sapiens, UniProt P51532); assay: HiBiT-BRG1 cell-based degradation assay (Nano-Glo HiBiT Lytic Detection, 24 h); conditions: HeLa cells expressing HiBit-BRG1 and LgBit; for DC50: read-out: BRG1 HiBit Degradation IC50; for Dmax: HeLa, top dose 30 μM, read-out: BRG1 HiBit Degradation Maximum measured
# T2 construct: expressed in transfected cells
# Experimental: as §1, with “On day 1, cells were treated with 120 nL DMSO or 120 nL of 3-fold serially DMSO-diluted compounds (10 points in duplicate with 30 μM as final top dose). Subsequently plates were incubated for 24 h in a standard tissue culture incubator and equilibrated at room temperature for 15 minutes.” left out
# For measurement of BRG1 degradation, a stable HeLa cell line expressing HiBit-BRG1 and LgBit was generated. The same protocol as above was then followed.
# as §2
# T2 sequence (P51532 whole entry, the tested form may be a part): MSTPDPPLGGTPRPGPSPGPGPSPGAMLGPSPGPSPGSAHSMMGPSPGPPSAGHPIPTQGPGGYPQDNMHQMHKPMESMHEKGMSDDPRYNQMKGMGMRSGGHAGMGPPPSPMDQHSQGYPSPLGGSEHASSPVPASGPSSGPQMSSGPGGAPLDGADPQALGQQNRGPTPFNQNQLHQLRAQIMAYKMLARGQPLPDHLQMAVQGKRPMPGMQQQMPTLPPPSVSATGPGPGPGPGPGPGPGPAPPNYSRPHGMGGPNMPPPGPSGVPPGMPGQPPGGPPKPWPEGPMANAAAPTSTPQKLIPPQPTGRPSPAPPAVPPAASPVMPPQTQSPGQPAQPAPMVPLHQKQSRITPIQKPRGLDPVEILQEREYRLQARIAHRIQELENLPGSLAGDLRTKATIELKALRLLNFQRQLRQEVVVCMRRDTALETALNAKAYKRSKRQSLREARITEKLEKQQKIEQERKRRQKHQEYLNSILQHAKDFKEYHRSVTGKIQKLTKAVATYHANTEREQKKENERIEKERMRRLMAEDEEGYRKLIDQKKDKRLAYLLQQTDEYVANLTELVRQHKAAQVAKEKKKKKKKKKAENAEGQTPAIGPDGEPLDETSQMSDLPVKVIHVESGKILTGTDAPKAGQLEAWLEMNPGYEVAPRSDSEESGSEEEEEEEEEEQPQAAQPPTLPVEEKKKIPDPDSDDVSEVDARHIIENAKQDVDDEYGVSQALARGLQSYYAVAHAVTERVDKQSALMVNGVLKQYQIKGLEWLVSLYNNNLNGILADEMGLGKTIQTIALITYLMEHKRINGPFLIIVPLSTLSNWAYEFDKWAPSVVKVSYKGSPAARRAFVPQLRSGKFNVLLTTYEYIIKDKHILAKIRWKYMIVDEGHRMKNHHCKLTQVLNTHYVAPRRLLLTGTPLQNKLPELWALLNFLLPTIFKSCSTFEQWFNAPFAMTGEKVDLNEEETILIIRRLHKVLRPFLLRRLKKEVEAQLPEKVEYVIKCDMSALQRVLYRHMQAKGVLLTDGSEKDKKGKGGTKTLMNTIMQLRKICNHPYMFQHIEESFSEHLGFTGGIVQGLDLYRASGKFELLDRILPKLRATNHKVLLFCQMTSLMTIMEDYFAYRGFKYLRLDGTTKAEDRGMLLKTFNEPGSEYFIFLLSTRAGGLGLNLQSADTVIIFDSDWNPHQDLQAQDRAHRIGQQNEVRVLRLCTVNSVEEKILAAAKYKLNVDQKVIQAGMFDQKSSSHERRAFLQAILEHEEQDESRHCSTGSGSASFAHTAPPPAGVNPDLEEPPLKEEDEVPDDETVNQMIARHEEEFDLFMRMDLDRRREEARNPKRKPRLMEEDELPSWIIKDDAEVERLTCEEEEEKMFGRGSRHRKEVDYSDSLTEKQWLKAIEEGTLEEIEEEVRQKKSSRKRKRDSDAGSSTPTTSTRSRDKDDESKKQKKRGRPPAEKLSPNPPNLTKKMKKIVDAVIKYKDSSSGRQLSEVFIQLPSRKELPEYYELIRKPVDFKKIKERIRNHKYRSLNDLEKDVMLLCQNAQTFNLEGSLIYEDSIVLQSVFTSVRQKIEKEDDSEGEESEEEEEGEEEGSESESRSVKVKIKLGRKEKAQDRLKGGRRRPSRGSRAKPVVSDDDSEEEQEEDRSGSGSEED
# T1 sequence (P51531 whole entry, the tested form may be a part): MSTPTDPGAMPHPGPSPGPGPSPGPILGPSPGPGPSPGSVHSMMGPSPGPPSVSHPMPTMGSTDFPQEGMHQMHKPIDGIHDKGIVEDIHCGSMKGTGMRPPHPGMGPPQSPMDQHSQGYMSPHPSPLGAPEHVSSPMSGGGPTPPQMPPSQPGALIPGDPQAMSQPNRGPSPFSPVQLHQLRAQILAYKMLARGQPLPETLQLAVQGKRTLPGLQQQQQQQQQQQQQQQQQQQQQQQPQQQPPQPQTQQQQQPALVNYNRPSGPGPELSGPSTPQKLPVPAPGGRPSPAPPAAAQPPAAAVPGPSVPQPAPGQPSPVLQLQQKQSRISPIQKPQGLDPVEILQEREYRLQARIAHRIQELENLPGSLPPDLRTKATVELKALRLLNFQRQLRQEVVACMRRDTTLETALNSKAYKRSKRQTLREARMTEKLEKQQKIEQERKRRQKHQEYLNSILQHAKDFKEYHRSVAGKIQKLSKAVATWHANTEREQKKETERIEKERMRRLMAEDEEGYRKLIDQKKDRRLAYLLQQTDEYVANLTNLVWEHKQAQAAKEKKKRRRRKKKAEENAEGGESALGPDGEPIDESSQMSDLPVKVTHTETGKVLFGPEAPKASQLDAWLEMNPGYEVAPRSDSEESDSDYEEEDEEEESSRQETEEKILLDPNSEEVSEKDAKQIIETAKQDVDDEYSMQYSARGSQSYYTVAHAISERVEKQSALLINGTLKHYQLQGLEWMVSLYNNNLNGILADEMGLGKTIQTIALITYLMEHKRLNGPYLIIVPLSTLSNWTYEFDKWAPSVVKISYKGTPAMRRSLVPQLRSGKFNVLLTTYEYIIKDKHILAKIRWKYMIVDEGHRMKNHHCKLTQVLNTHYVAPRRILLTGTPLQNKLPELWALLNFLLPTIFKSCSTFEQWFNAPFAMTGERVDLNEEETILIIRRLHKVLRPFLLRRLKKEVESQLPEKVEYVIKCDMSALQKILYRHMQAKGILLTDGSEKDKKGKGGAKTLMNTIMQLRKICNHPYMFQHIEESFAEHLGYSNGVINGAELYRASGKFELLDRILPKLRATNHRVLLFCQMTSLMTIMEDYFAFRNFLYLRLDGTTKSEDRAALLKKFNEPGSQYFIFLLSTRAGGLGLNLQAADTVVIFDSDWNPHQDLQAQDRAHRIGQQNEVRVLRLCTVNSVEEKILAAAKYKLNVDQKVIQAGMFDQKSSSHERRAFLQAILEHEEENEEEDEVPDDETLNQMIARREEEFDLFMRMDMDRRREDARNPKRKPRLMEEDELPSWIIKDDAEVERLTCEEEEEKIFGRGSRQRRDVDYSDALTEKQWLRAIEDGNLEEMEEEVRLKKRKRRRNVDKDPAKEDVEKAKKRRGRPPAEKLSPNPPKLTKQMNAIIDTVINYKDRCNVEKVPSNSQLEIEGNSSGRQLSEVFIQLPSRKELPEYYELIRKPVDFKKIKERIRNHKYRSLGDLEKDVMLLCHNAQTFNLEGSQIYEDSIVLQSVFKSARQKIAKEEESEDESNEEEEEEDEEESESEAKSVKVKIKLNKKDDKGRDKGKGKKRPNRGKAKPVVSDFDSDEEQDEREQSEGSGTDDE
Structure (SMILES),DC50 (HiBit-BRM fusion protein) [µM],BRM HiBit Degradation Maximum measured (HiBit-BRM fusion protein),DC50 [1] [µM],Dmax [1] [%]
"CS(=O)(=O)n1ccc(C(=O)NCC(=O)Nc2nc(-c3cccc(-c4ccnc(C5(C(=O)N6CC(COc7cccc8c7C(=O)N(C7CCC(=O)NC7=O)C8=O)C6)CC5)c4)c3)cs2)c1 (stereo not drawn) [Compound 109, N-[4-[3-(2-[1-[3-([[2-(2,6-dioxopiperidin-3-yl)-1,3-dioxoisoindol-4-yl]oxy]methyl)azetidine-1-carbonyl]cyclopropyl]pyridin-4-yl)phenyl]-1,3-thiazol-2-yl]-2-[(1-methanesulfonylpyrrol-3-yl)formamido]acetamide]",> 10,C (‘C’ = Maximum degradation <50%),> 10,< 50
"Cc1ncsc1-c1ccc(CNC(=O)[C@@H]2C[C@@H](O)CN2C(=O)[C@@H](NC(=O)CCCCCCCCCCC(=O)NCc2ccc(COC[C@H](NC(=O)c3ccn(S(C)(=O)=O)c3)C(=O)Nc3nc(-c4ccccc4)cs3)cc2)C(C)(C)C)cc1 [Compound 209, N-[(2S)-1-[(2S,4R)-4-hydroxy-2-([[4-(4-methyl-1,3-thiazol-5-yl)phenyl]methyl]carbamoyl)pyrrolidin-1-yl]-3,3-dimethyl-1-oxobutan-2-yl]-N′-[(4-[[(2S)-2-[(1-methanesulfonylpyrrol-3-yl)formamido]-2-[(4-phenyl-1,3-thiazol-2-yl)carbamoyl]ethoxy]methyl]phenyl)methyl]dodecanediamide]",> 10,C (‘C’ = Maximum degradation <50%),> 10,< 50
"CS(=O)(=O)n1ccc(C(=O)NCC(=O)Nc2nc(-c3cccc(-c4ccn(CC(=O)NCCOCCOCCNc5cccc6c5C(=O)N(C5CCC(=O)NC5=O)C6=O)n4)c3)cs2)c1 (stereo not drawn) [Compound 3, N-[2-[[4-[3-[1-[2-[2-[2-[2-[[2-(2,6-dioxo-3-piperidyl)-1,3-dioxoisoindolin-4-yl]amino]ethoxy]ethoxy]ethylamino]-2-oxo-ethyl]pyrazol-3-yl]phenyl]thiazol-2-yl]amino]-2-oxo-ethyl]-1-methylsulfonyl-pyrrole-3-carboxamide]",> 10,C (‘C’ = Maximum degradation <50%),> 10,< 50
"CS(=O)(=O)n1ccc(C(=O)NCC(=O)Nc2nc(-c3cccc(-c4ccnc(OCCNC(=O)CCOCCOCCNc5cccc6c5C(=O)N(C5CCC(=O)NC5=O)C6=O)c4)c3)cs2)c1 (stereo not drawn) [Compound 81, N-[2-[[4-[3-[2-[2-[3-[2-[2-[[2-(2,6-dioxo-3-piperidyl)-1,3-dioxoisoindolin-4-yl]amino]ethoxy]ethoxy]propanoylamino]ethoxy]-4-pyridyl]phenyl]thiazol-2-yl]amino]-2-oxo-ethyl]-1-methylsulfonyl-pyrrole-3-carboxamide]",> 10,C (‘C’ = Maximum degradation <50%),0.1 to 1,50 to 75
"CS(=O)(=O)n1ccc(C(=O)N[C@@H](CCCCNC(=O)CCOCCOCCOc2ccc3c(c2)C(=O)N(C2CCC(=O)NC2=O)C3=O)C(=O)Nc2nc(-c3ccccc3)cs2)c1 (stereo partly drawn) [Compound 291, (2S)-6-[3-[2-(2-[[2-(2,6-dioxopiperidin-3-yl)-1,3-dioxoisoindol-5-yl]oxy]ethoxy)ethoxy]propanamido]-2-[(1-methanesulfonylpyrrol-3-yl)formamido]-N-(4-phenyl-1,3-thiazol-2-yl)hexanamide]",> 10,C (‘C’ = Maximum degradation <50%),> 10,< 50
"CS(=O)(=O)n1ccc(C(=O)N[C@@H](COCc2ccc(C(=O)N3CCC(CN4CCN(c5ccc6c(c5)C(=O)N(C5CCC(=O)NC5=O)C6=O)CC4)CC3)cc2)C(=O)Nc2nc(-c3ccccc3)cs2)c1 (stereo partly drawn) [Compound 192, (2S)-3-([4-[4-([4-[2-(2,6-dioxopiperidin-3-yl)-1,3-dioxoisoindol-5-yl]piperazin-1-yl]methyl)piperidine-1-carbonyl]phenyl]methoxy)-2-[(1-methanesulfonylpyrrol-3-yl)formamido]-N-(4-phenyl-1,3-thiazol-2-yl)propanamide; formic acid]",> 10,C (‘C’ = Maximum degradation <50%),> 10,< 50
"CS(=O)(=O)n1ccc(C(=O)N[C@@H](COCc2ccc(CNC(=O)CCCCCCCCCCNc3cccc4c3C(=O)N(C3CCC(=O)NC3=O)C4=O)cc2)C(=O)Nc2nc(-c3ccccc3)cs2)c1 (stereo partly drawn) [Compound 214, 11-[[2-(2,6-dioxopiperidin-3-yl)-1,3-dioxoisoindol-4-yl]amino]-N-[(4-[[(2S)-2-[(1-methanesulfonylpyrrol-3-yl)formamido]-2-[(4-phenyl-1,3-thiazol-2-yl)carbamoyl]ethoxy]methyl]phenyl)methyl]undecanamide]",0.1 to 1,B (‘B’ = Maximum degradation ≥50% and ≤75%),0.1 to 1,–

# Second part, the compound after the results:
DC50 (HiBit-BRM fusion protein) [µM],BRM HiBit Degradation Maximum measured (HiBit-BRM fusion protein),DC50 [1] [µM],Dmax [1] [%],Structure (SMILES)
> 10,C (‘C’ = Maximum degradation <50%),> 10,< 50,CN(CCNC(=O)COc1cccc2c1C(=O)N(C1CCC(=O)NC1=O)C2=O)CCNC(=O)c1ccc(COC[C@H](NC(=O)c2ccn(S(C)(=O)=O)c2)C(=O)Nc2nc(-c3ccccc3)cs2)cc1 (stereo partly drawn) [Compound 175]
> 10,C (‘C’ = Maximum degradation <50%),> 10,< 50,"CS(=O)(=O)n1ccc(C(=O)N[C@@H](CCOCCCC(=O)NCCCCS(=O)(=O)CCCNc2cccc3c2C(=O)N(C2CCC(=O)NC2=O)C3=O)C(=O)Nc2nc(-c3ccccc3)cs2)c1 (stereo partly drawn) [Compound 275, (2S)-4-(3-[[4-(3-[[2-(2,6-dioxopiperidin-3-yl)-1,3-dioxoisoindol-4-yl]amino]propanesulfonyl)butyl]carbamoyl]propoxy)-2-[(1-methanesulfonylpyrrol-3-yl)formamido]-N-(4-phenyl-1,3-thiazol-2-yl)butanamide]"
> 10,C (‘C’ = Maximum degradation <50%),> 10,< 50,"CS(=O)(=O)n1ccc(C(=O)N[C@@H](COCCCC(=O)NCCCCCCNc2ccc3c(c2)C(=O)N(C2CCC(=O)NC2=O)C3=O)C(=O)Nc2nc(-c3ccccc3)cs2)c1 (stereo partly drawn) [Compound 230, N-(6-[[2-(2,6-dioxopiperidin-3-yl)-1,3-dioxoisoindol-5-yl]amino]hexyl)-4-[(2S)-2-[(1-methanesulfonylpyrrol-3-yl)formamido]-2-[(4-phenyl-1,3-thiazol-2-yl)carbamoyl]ethoxy]butanamide]"
0.1 to 1,A (‘A’ = Maximum degradation >75%),0.1 to 1,> 75,"Cc1ncsc1-c1ccc(CNC(=O)[C@@H]2C[C@@H](O)CN2C(=O)[C@@H](NC(=O)CCCCCCC(=O)NCc2cccc(-c3cccc(-c4csc(NC(=O)CNC(=O)c5ccn(S(C)(=O)=O)c5)n4)c3)c2)C(C)(C)C)cc1 [Compound 50, N1-((S)-1-((2S,4R)-4-hydroxy-2-((4-(4-methylthiazol-5-yl)benzyl)carbamoyl)pyrrolidin-1-yl)-3,3-dimethyl-1-oxobutan-2-yl)-N8-((3′-(2-(2-(1-(methylsulfonyl)-1H-pyrrole-3-carboxamido)acetamido)thiazol-4-yl)-[1,1′-biphenyl]-3-yl)methyl)octanediamide]"
0.1 to 1,A (‘A’ = Maximum degradation >75%),0.1 to 1,> 75,"CS(=O)(=O)n1ccc(C(=O)N[C@@H](COCc2ccc(C(=O)NC3CCN(CCOc4ccc5c(c4)C(=O)N(C4CCC(=O)NC4=O)C5=O)CC3)cc2)C(=O)Nc2nc(-c3ccccc3)cs2)c1 (stereo partly drawn) [Compound 247, N-[1-(2-[[2-(2,6-dioxopiperidin-3-yl)-1,3-dioxoisoindol-5-yl]oxy]ethyl)piperidin-4-yl]-4-[[(2S)-2-[(1-methanesulfonylpyrrol-3-yl)formamido]-2-[(4-phenyl-1,3-thiazol-2-yl)carbamoyl]ethoxy]methyl]benzamide]"
< 0.1,A (‘A’ = Maximum degradation >75%),< 0.1,> 75,"Cc1ncsc1-c1ccc(CNC(=O)[C@@H]2C[C@@H](O)CN2C(=O)[C@@H](NC(=O)CCCCCCCC(=O)NCc2cccc(-c3cccc(-c4csc(NC(=O)CNC(=O)c5ccn(S(C)(=O)=O)c5)n4)c3)c2)C(C)(C)C)cc1 [Compound 49, N1-((S)-1-((2S,4R)-4-hydroxy-2-((4-(4-methylthiazol-5-yl)benzyl)carbamoyl)pyrrolidin-1-yl)-3,3-dimethyl-1-oxobutan-2-yl)-N9-((3′-(2-(2-(1-(methylsulfonyl)-1H-pyrrole-3-carboxamido)acetamido)thiazol-4-yl)-[1,1′-biphenyl]-3-yl)methyl)nonanediamide]"
